These results are taken from patent US12612412B2, “Antiviral heterocyclic compounds” (Enanta Pharmaceuticals, Inc., priority 2021, dated 2026).

Structures are written as SMILES.

For experiment [1], the system named is HMPV clinical isolate TN/1501/A1. Nature of the experiment: HMPV antiviral assay Method-B (clinical isolate TN/1501/A1 in LLC-MK2 cells, ATP-Lite readout). Type of experiment: cell-based, Human metapneumovirus (HMPV). Particulars: human metapneumovirus, LLC-MK2, 144 h, hMPV WT1501 (clinical isolate TN/1501/A1), 6 days. The method, then:
In vitro HMPV antiviral activity was evaluated using the clinical isolate TN/1501/A1 and LLC-MK2 cells (ATCC #CCL-7), an immortalized kidney epithelial cell line from Macaca mulatta. Compounds were resuspended in dimethyl sulfoxide (DMSO) at 10 mM and added to a 384-well source plate. The compounds were diluted and transferred onto 384-well assay plates using the Echo-650 automated liquid handling system (Beckman Coulter, Indiana). The test compounds were assessed in duplicate at a top concentration of 10 μM followed by 3-fold serial dilutions to give a total of 10 concentration points. DMSO control wells were also included on the assay plates and were either infected or not, acting as positive and negative controls. TN/1501/A1 virus infections were performed in-suspension with LLC-MK2 cells. The cells were washed twice with PBS and removed from the cell-culture flask with 0.25% trypsin-EDTA (Thermo Fisher Scientific, MA). The trypsin-EDTA was inactivated by resuspending in 2% fetal bovine serum (FBS) and OptiMEM (ThermoFisher Scientific, MA) containing 1% penicillin-streptomycin. Cells were pelleted by centrifuging for 5 minutes at 800 rpm, the supernatant was removed, and cells were suspended in PBS plus 100 μg/mL CaCl2). This step was performed twice. Cells were then resuspended in serum-free (SF)-OptiMEM containing 4 μg/mL TPCK-Trypsin (Sigma Aldrich, MO), 1% penicillin-streptomycin (ThermoFisher Scientific, MA) and 100 μg/mL CaCl2). Cells were counted and seeded at a density of 5,000 cells/well, 12.5 μL/well. Virus infections were done at a multiplicity of infection (MOI) of 0.014 with 12.5 μL added per well. SF-OptiMEM, 12.5 μL/well, was added to the appropriate wells to serve as a virus-free negative control for the assay. The final concentration of TPCK-trypsin was 2 μg/mL. Plates were incubated at 37° C., 5% CO2 for 6 days. After 6 days incubation, 12.5 μL of ATP-Lite (PerkinElmer, MA) was added to each well and the raw luminescence values were determined using the Envision 2104 (Perkin Elmer, MA). The average of the raw luminescence values for the cells and virus only positive control wells was subtracted from all conditions tested and the percent cell health was determined by dividing these values by the average of the cells only negative control wells. EC50 values were then calculated by non-linear regression using a four-parameter curve logistic equation. The curve fit model employed was XLFit Dose Response One Site Model 200: y=(A+(B/(1+((x/C)^D)))), where A is the minimum y value, B is the maximum y value, C is the log EC50 value, and D is the slope factor. […] EC50 ranges are as follows: A<0.5 μM; B>0.5 μM.

The test system of experiment [2] is genotype A, "Long" strain RSV. Briefly: RSV-A assay (CPE protection in Hep-2 cells, ATPlite readout). Type of experiment: cell-based, Human respiratory syncytial virus (HRSV). Particulars: human respiratory syncytial virus, RSV-A Long strain, MOI 0.1, CPE protection, read-out: Human RSV-A (“Long”) EC50. In short, it runs like this: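 ATPlite luminescence (cellular ATP) served as the measure of cell health after 5 days of infection. Hep-2 cells at 8,000 per well received duplicate 2-fold compound dilutions plus virus at MOI 0.1, and EC50 was calculated from CPE protection.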

`COc1cc(C(=O)NC[C@](O)(c2cc3c(c(-c4csc5c(F)cccc45)n2)OC[C@]3(C)C(N)=O)C2(F)CC2)cc2cn(C3(F)CC3)nc12` [Example 629] returned an EC50 in experiment [1] of under 500 nM.

As to `COc1cc(C(=O)NC[C@](O)(c2cc3c(c(-c4csc5c(F)cccc45)n2)OC[C@]3(C)C(N)=O)C2(F)CC2)cc2cn(C(F)F)nc12` [Example 630], in experiment [1], the EC50 was under 500 nM.

Regarding `C[C@]1(C(N)=O)COc2c1cc([C@@](O)(CNC(=O)c1cc(Cl)c3nn(C4CC4)cc3c1)C1(F)CC1)nc2-c1csc2c(F)cccc12` [Example 631], in experiment [1], the EC50 is under 500 nM.

As to `COc1cc(C(=O)NC[C@](O)(c2cc3c(c(-c4csc5c(F)cccc45)n2)OC[C@]3(C)C(N)=O)C2(F)CC2)cc2cn(C3CC3)nc12` [Example 632], the EC50 in experiment [1] was under 500 nM.

As for `COc1cc(C(=O)NC[C@](O)(c2cc3c(c(-c4cc(Cl)c(F)c(Cl)c4)n2)OC[C@]3(C)C(N)=O)C2CC2)cc2cn(C3CC3)nc12` [Example 676], the concentration for a half-maximal effect (EC50) in experiment [1] is under 500 nM.

Compound `COc1cc(C(=O)NC[C@](O)(c2cc3c(c(-c4cc(Cl)c(F)c(Cl)c4)n2)OC[C@]3(C)C(N)=O)C2CC2)cc2cn(C(F)F)nc12` [Example 677] returned an EC50 in experiment [1] of over 500 nM.

With `COc1cc(C(=O)NC[C@](O)(c2cc3c(c(-c4cc(Cl)c(F)c(Cl)c4)n2)OC[C@]3(C)C(N)=O)C2CC2)cc2cn(C3(F)CC3)nc12` [Example 678], the EC50 in experiment [1] was under 500 nM.

For the compound `COc1cc(C(=O)NC[C@](O)(c2cc3c(c(-c4cc(Cl)c(F)c(Cl)c4)n2)OC[C@]3(C)C(N)=O)C2CC2)cc2cc(Br)cnc12` [Example 679], the EC50 in experiment [1] was over 500 nM.

Compound `C[C@]1(C(N)=O)COc2c1cc([C@@](O)(CNC(=O)c1cc(Cl)c3nn(C4CC4)cc3c1)C1CC1)nc2-c1cc(Cl)c(F)c(Cl)c1` [Example 680] came in with an EC50 in experiment [1] of over 500 nM.

In turn, `COc1cc(C(=O)NC[C@](O)(c2cc3c(c(-c4cc(Cl)c(F)c(Cl)c4)n2)OC[C@]3(C)C(N)=O)C2CC2)cc2cc(Cl)c(C)nc12` [Example 681] displayed a 50% effective concentration (EC50) in experiment [1] of over 500 nM.

Compound `Cc1cnc2c(Cl)cc(C(=O)NC[C@](O)(c3cc4c(c(-c5cc(Cl)c(F)c(Cl)c5)n3)OC[C@]4(C)C(N)=O)C3CC3)cc2c1` [Example 682] returned an EC50 in experiment [1] of over 500 nM.

For `COc1cc(C(=O)NC[C@](O)(c2cc3c(c(-c4ccc(Cl)c(F)c4F)n2)OC[C@]3(C)C(N)=O)C2CC2)cc2cc(Br)cnc12` [Example 689], the EC50 in experiment [1] was under 500 nM.

The compound `C[C@]1(C(N)=O)COc2c1cc([C@@](O)(CNC(=O)c1ccc3nn(C4CC4)cc3c1)C1CC1)nc2-c1cc(Cl)c(F)cc1F` [Example 690] showed an EC50 in experiment [1] of under 500 nM.

Take `[2H]C([2H])([2H])c1nc2c(OC)cc(C(=O)NC[C@](O)(c3cc4c(c(-c5cc(Cl)c(F)cc5F)n3)OC[C@]4(C)C(N)=O)C3CC3)cc2cc1Cl` [Example 1287]: the EC50 in experiment [2] was under 200 nM.

With `[2H]C([2H])([2H])c1nc2c(OC)cc(C(=O)NC[C@](O)(c3cc4c(c(-c5cc(F)c(F)cc5F)n3)OC[C@]4(C)C(N)=O)C3CC3)cc2cc1Cl` [Example 1288], the EC50 in experiment [2] is under 200 nM.

Take `COc1cc(C(=O)NC[C@](O)(c2cc3c(c(-c4c(F)ccc(Cl)c4Cl)n2)OC[C@]3(C)C(N)=O)C2CC2)cc2cn(C3CC3)nc12` [Example 1289]: the EC50 in experiment [2] is under 200 nM.

Regarding `CNC(=O)[C@@]1(C)COc2c1cc([C@@](O)(CNC(=O)c1cc(OC)c3nn(C4CC4)cc3c1)C1CC1)nc2-c1ccc(F)cc1` [Example 1290], the EC50 in experiment [2] is under 200 nM.

With `COc1cc(C(=O)NC[C@](O)(c2cc3c(c(-c4ccc5c(c4)OC(F)(F)O5)n2)OC[C@]3(C)C(N)=O)C2CC2)cc2sc(C)nc12` [Example 1291], the EC50 in experiment [2] is under 200 nM.

On to `C[C@]1(C(N)=O)COc2c1cc([C@@](O)(CNC(=O)c1ccc3nc(C4CC4)sc3c1)C1CC1)nc2-c1ccc2c(c1)OC(F)(F)O2` [Example 1292], for which the EC50 in experiment [2] is over 200 nM.

For the compound `COc1cc(C(=O)NC[C@](O)(c2cc3c(c(-c4ccc5c(c4)OC(F)(F)O5)n2)OC[C@]3(C)C(N)=O)C2CC2)cc2sc(C3CC3)nc12` [Example 1293], the EC50 in experiment [2] is under 200 nM.
